Source: US20250214932A1, “T-TYPE CALCIUM CHANNEL MODULATORS COMPRISING AN AZASPIRONONANE CORE AND METHODS OF USE THEREOF” (Praxis Precision Medicines, Inc., priority 2022, published 2025)
Where two headings read alike, the source gives them in different places.

Molecular target: Human Cav3.1 (Homo sapiens (Human), UniProt O43497)
Assay: Human Cav3.1 calcium channel patch clamp assay (SyncroPatch 384PE, HEK-293 natClytin/TASK1+Cav3.1 cell line)
Type: cell-based
Description: Pulse generation and data collection were performed with PatchController384 V1.3.0 and DataController384 V1.2.1 (Nanion Technologies). Off-line analysis was performed using Excel and Graphpad Prism (V 8.4.2) with complete data files uploaded to Dotmatics. The access resistance and apparent membrane capacitance were estimated using built-in protocols. Current was recorded in whole cell configuration from a population of cells. The cells were lifted, triturated, and resuspended at 800,000 cells/ml. The cells were allowed to recover in the cell hotel prior to experimentation. Currents were recorded at room temperature. The external solution contained the following (in mM): NaCl 80, NMDG 60, KCl 4, MgCl2 1, CaCl2 6, glucose 5 and HEPES 10 (pH=7.4, Osmolarity ˜300 mOsm). The extracellular solution was used as the wash, reference and compound delivery solution. […] The compound plate was created at 2× concentrated in the extracellular solution. The compound was diluted to 1:2 when added to the recording well. The amount of DMSO in the extracellular solution was held constant at the level used for the highest tested concentration. For the voltage clamp experiments on Cav3.1, data were sampled at 10 KHz. After establishment of the seal and the passage in the whole cell configuration, the cells were held at −120 mV. Cav3.1 current was evoked using a 100 ms step to −20 mV (to measure resting state block), followed by a 1600 ms step to −65 mV and a second 100 ms step to −20 mV (to measure voltage dependent block). The voltage protocol was applied every 15 seconds in the absence and in the presence of the compounds under investigation. […] Current amplitude (pA) was measured in the peak 1 and 2. The average of last 3 sweeps of each liquid period (vehicle, compound under investigation, full block) was calculated. Nickel-sensitive current was used to calculate the % of inhibition in the presence of the compound under investigation.
Pulse generation and data collection were performed with PatchController384 V1.3.0 and DataController384 V1.2.1 (Nanion Technologies). Off-line analysis was performed using Excel and Graphpad Prism (V 8.4.2) with complete data files uploaded to Dotmatics. The access resistance and apparent membrane capacitance were estimated using built-in protocols. Current was recorded in whole cell configuration from a population of cells.
The cells were lifted, triturated, and resuspended at 800,000 cells/ml. The cells were allowed to recover in the cell hotel prior to experimentation. Currents were recorded at room temperature. The external solution contained the following (in mM): NaCl 80, NMDG 60, KCl 4, MgCl2 1, CaCl2 6, glucose 5 and HEPES 10 (pH=7.4, Osmolarity ˜300 mOsm). The extracellular solution was used as the wash, reference and compound delivery solution.
The compound plate was created at 2× concentrated in the extracellular solution. The compound was diluted to 1:2 when added to the recording well. The amount of DMSO in the extracellular solution was held constant at the level used for the highest tested concentration. For the voltage clamp experiments on Cav3.1, data were sampled at 10 KHz. After establishment of the seal and the passage in the whole cell configuration, the cells were held at −120 mV. Cav3.1 current was evoked using a 100 ms step to −20 mV (to measure resting state block), followed by a 1600 ms step to −65 mV and a second 100 ms step to −20 mV (to measure voltage dependent block). The voltage protocol was applied every 15 seconds in the absence and in the presence of the compounds under investigation. […] Current amplitude (pA) was measured in the peak 1 and 2. The average of last 3 sweeps of each liquid period (vehicle, compound under investigation, full block) was calculated. Nickel-sensitive current was used to calculate the % of inhibition in the presence of the compound under investigation.

[1] = patch clamp, HEK-293 natClytin/TASK1+Cav3.1 cells, class symbols, read-out: Human Cav3.1 IC50
[2] = voltage dependent block (VDB), read-out: Cav3.1 (VDB) IC50

Chain of Human Cav3.1 (O43497 whole entry): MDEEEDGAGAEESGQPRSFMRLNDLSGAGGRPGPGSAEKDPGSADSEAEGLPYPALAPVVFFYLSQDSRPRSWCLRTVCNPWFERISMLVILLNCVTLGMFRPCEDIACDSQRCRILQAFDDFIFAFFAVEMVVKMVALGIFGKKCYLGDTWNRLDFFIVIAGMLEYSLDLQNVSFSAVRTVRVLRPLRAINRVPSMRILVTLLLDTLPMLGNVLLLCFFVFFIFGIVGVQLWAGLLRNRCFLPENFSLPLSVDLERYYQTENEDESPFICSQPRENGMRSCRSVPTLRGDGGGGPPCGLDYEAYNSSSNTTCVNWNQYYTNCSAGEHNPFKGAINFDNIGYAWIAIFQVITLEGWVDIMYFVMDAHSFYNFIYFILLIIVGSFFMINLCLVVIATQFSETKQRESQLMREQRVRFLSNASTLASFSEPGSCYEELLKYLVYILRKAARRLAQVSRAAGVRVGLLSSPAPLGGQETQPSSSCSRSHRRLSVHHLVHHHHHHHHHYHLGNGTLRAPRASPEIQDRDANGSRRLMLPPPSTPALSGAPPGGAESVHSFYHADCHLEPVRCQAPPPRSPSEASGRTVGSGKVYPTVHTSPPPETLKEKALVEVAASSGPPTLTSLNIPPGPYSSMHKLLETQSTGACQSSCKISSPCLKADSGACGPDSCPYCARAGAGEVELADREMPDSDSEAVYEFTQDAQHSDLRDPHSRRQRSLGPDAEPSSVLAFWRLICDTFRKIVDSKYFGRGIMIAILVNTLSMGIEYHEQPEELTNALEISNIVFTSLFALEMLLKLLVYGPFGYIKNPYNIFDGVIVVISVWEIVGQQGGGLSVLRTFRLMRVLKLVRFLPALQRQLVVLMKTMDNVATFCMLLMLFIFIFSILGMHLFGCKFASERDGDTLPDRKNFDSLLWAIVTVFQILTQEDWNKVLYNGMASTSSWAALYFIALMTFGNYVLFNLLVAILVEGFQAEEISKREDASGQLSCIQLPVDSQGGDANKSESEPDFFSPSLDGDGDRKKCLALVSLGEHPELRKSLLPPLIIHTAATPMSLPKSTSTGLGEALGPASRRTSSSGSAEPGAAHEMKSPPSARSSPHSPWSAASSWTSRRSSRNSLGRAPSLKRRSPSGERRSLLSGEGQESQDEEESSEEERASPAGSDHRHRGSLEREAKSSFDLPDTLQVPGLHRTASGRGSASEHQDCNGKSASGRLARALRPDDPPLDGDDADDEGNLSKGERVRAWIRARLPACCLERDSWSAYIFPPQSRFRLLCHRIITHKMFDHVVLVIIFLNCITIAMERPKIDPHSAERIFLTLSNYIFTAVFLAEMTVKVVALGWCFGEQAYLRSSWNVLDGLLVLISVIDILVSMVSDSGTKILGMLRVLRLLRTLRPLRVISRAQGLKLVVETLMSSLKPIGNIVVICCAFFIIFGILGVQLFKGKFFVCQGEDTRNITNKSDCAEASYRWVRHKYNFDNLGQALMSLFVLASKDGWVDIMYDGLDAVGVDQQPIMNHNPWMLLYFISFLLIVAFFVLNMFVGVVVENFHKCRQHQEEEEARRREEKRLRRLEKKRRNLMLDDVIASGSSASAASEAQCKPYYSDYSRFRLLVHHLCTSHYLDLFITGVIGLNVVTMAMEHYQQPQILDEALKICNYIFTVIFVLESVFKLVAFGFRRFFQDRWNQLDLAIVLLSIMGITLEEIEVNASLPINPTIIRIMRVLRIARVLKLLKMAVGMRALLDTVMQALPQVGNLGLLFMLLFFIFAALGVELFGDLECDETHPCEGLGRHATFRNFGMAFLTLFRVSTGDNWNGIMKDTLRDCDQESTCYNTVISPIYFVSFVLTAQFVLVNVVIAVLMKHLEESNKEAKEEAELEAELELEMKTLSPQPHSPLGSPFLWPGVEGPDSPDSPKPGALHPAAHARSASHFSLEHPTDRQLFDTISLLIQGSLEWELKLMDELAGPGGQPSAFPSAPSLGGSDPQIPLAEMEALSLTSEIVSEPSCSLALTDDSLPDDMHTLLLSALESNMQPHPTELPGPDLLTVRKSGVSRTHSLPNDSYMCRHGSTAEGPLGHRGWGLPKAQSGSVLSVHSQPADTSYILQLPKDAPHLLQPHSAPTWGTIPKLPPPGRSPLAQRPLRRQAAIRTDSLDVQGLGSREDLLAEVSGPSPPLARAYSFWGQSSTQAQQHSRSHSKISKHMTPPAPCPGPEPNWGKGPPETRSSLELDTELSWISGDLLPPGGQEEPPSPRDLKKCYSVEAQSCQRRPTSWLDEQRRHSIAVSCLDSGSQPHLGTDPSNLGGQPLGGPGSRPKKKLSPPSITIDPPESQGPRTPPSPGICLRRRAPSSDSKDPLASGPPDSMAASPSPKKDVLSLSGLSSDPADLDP

Compound | IC50 [1] [nM] | IC50 [2] [nM]
CC(C)(C)NC(=O)CN1CC2(CCC(C(=O)Nc3cc(Cl)cc(Cl)c3)CC2)C1 [Example 1, 2-(2-(tert-butylamino)-2-oxoethyl)-N-(3,5-dichlorophenyl)-2-azaspiro[3.5]nonane-7-carboxamide] | < 1000 | 176
CC(C)(C)NC(=O)CN1CC2(CCC(C(=O)Nc3cccc(Cl)c3)CC2)C1 [Example 2] | < 1000 | –
CC(C)(C)NC(=O)CN1CC2(CCC(C(=O)Nc3ccc(Cl)cc3)CC2)C1 [Example 3] | < 1000 | 724
CC(C)(C)NC(=O)CN1CC2(CCC(C(=O)Nc3cc(F)cc(C(F)(F)F)c3)CC2)C1 [Example 4] | < 1000 | 254
Cc1cc(NC(=O)C2CCC3(CC2)CN(CC(=O)NC(C)(C)C)C3)nn1-c1ccccc1 [Example 6] | 1000 to 10000 | 2280
CC(C)(C)NC(=O)CN1CC2(CCC(C(=O)Nc3cc(F)cc(OC(F)F)c3)CC2)C1 [Example 7] | < 1000 | 118
CC(C)(C)NC(=O)CN1CC2(CCC(C(=O)NC34CCC(CC3)CC4)CC2)C1 [Example 8] | < 1000 | 663
CC(C)(C)NC(=O)CN1CC2(CCC(C(=O)Nc3cc(F)cc(C(F)F)c3)CC2)C1 [Example 9] | < 1000 | 78.5
CCC(C)(C)NC(=O)CN1CC2(CCC(C(=O)Nc3cc(F)cc(Cl)c3)CC2)C1 [Example 10, N-(3-chloro-5-fluorophenyl)-2-(2-oxo-2-(tert-pentylamino)ethyl)-2-azaspiro[3.5]nonane-7-carboxamide] | < 1000 | 142
O=C(Nc1cc(F)cc(Cl)c1)C1CCC2(CC1)CN(Cc1ccc(Cl)cc1)C2 [Example 11] | 1000 to 10000 | –
CC1(NC(=O)CN2CC3(CCC(C(=O)Nc4cc(F)cc(Cl)c4)CC3)C2)CCC1 [Example 12] | < 1000 | 112
O=C(Nc1cc(F)cc(Cl)c1)C1CCC2(CC1)CN(CCC1CCC(F)(F)CC1)C2 [Example 13] | < 1000 | 239
O=C(Nc1cc(F)cc(Cl)c1)C1CCC2(CC1)CN(Cc1ccc(F)cc1)C2 [Example 14] | < 1000 | 612
CC(C)(NC(=O)CN1CC2(CCC(C(=O)Nc3cc(F)cc(Cl)c3)CC2)C1)C(F)(F)F [Example 16] | < 1000 | 170
O=C(Nc1cc(F)cc(Cl)c1)C1CCC2(CC1)CN(CCC1CCCC1)C2 [Example 17] | < 1000 | 182
COCCNC(=O)CN1CC2(CCC(C(=O)Nc3cc(F)cc(Cl)c3)CC2)C1 [Example 18] | 1000 to 10000 | –
O=C(Nc1cc(F)cc(Cl)c1)C1CCC2(CC1)CN(Cc1cccc(C(F)F)c1)C2 [Example 19] | < 1000 | 624
CC(C)(C)c1coc(CN2CC3(CCC(C(=O)Nc4cc(F)cc(Cl)c4)CC3)C2)n1 [Example 20] | < 1000 | 988
O=C(CN1CC2(CCC(C(=O)Nc3cc(F)cc(Cl)c3)CC2)C1)NC1CCCC1 [Example 21] | < 1000 | < 78.2
CC(C)(C)CCN1CC2(CCC(C(=O)Nc3cc(F)cc(Cl)c3)CC2)C1 [Example 22] | < 1000 | –
O=C(Nc1cc(F)cc(Cl)c1)C1CCC2(CC1)CN(Cc1cccc(Cl)c1)C2 [Example 23] | < 1000 | 467
O=C(Nc1cc(F)cc(Cl)c1)C1CCC2(CC1)CN(Cc1cccc(C(F)(F)F)c1)C2 [Example 24] | < 1000 | 890
CC(C)(C)NC(=O)CN1CC2(CCC(C(=O)Nc3cc(F)cc(Cl)c3)CC2)C1 [Example 25] | < 1000 | 174
CC(C)(C)NC(=O)CN1CC2(CCC(C(=O)NC34CC5CC(CC(C5)C3)C4)CC2)C1 [Example 26] | 1000 to 10000 | –
CCC(C)(C)NC(=O)CN1CC2(CCC(C(=O)Nc3cc(F)cc(C(F)F)c3)CC2)C1 [Example 27] | < 1000 | 182
O=C(Nc1cc(F)cc(C(F)F)c1)C1CCC2(CC1)CN(CC1CCC(F)(F)CC1)C2 [Example 28] | < 1000 | 370

Compound | IC50 [1] [nM] | IC50 [2] [nM]
CC1(NC(=O)CN2CC3(CCC(C(=O)Nc4cc(F)cc(C(F)F)c4)CC3)C2)CCC1 [Example 29] | < 1000 | 102
CC(C)(NC(=O)CN1CC2(CCC(C(=O)Nc3cc(F)cc(C(F)F)c3)CC2)C1)C(F)(F)F [Example 30] | < 1000 | 192
O=C(Nc1cc(F)cc(C(F)F)c1)C1CCC2(CC1)CN(CCC1CCCC1)C2 [Example 31] | < 1000 | 376
O=C(CN1CC2(CCC(C(=O)Nc3cc(F)cc(C(F)F)c3)CC2)C1)NC1CCCC1 [Example 32] | < 1000 | 139
CC(C)(C)CCN1CC2(CCC(C(=O)Nc3cc(F)cc(C(F)F)c3)CC2)C1 [Example 33] | < 1000 | 339
CCC(C)(C)N(C)C(=O)CN1CC2(CCC(C(=O)Nc3cc(F)cc(C(F)F)c3)CC2)C1 [Example 34] | < 1000 | 199
CN(C(=O)CN1CC2(CCC(C(=O)Nc3cc(F)cc(C(F)F)c3)CC2)C1)C1CCCC1 [Example 35] | < 1000 | 320
CC(C)(CCN1CC2(CCC(C(=O)Nc3cc(F)cc(C(F)F)c3)CC2)C1)C(F)(F)F [Example 36] | < 1000 | 327
O=C(Nc1cc(F)cc(C(F)F)c1)C1CCC2(CC1)CN(CCC1CCC(F)(F)CC1)C2 [Example 37] | < 1000 | 323
CC1(CCN2CC3(CCC(C(=O)Nc4cc(F)cc(C(F)F)c4)CC3)C2)CC1 [Example 38] | < 1000 | 367
CC(C)(C)NC(=O)CN1CC2(CCC(C(=O)Nc3cccc(Cl)c3)CC2)C1 [Example 39] | – | 294
CN(C(=O)CN1CC2(CCC(C(=O)Nc3cc(F)cc(C(F)F)c3)CC2)C1)C1(C)CCC1 [Example 40] | – | 338
O=C(Nc1cc(F)cc(C(F)F)c1)C1CCC2(CC1)CN(CC(=O)N1CCOCC1)C2 [Example 41] | – | 846
O=C(Nc1cc(F)cc(C(F)F)c1)C1CCC2(CC1)CN(CC(=O)N1CCOCC13CC3)C2 [Example 42] | – | 703
CC1(CCN2CC3(CCC(C(=O)Nc4cc(F)cc(C(F)F)c4)CC3)C2)CCC1 [Example 43] | – | 300
CC1(C)COCCN1C(=O)CN1CC2(CCC(C(=O)Nc3cc(F)cc(C(F)F)c3)CC2)C1 [Example 44] | – | 176
COCC(C)(C)NC(=O)CN1CC2(CCC(C(=O)Nc3cc(F)cc(C(F)F)c3)CC2)C1 [Example 45] | – | 191
CC1(C(=O)NCCN2CC3(CCC(C(=O)Nc4cc(F)cc(C(F)F)c4)CC3)C2)CC1 [Example 49] | – | 723
O=C(Nc1cc(F)cc(C(F)F)c1)C1CCC2(CC1)CN(CCNC(=O)C1(C(F)(F)F)CC1)C2 [Example 50] | – | 284
CC(C)(C)NC(=O)CN1CC2(CCC(F)(C(=O)Nc3cc(F)cc(C(F)F)c3)CC2)C1 [Example 51] | – | 469
CC1(C(=O)NCCN2CC3(CCC(C(=O)Nc4cc(F)cc(C(F)F)c4)CC3)C2)CCC1 [Example 53] | – | 447
CC(C)(C)NC(=O)CN1CC2(CCC(C(=O)Nc3cccc(OC(F)F)c3)CC2)C1 [Example 55] | – | 296
CC(C)(C)OC(=O)CN1CC2(CCC(C(=O)Nc3cc(F)cc(Cl)c3)CC2)C1 [Example 56] | – | 513
O=C(CN1CC2(CCC(C(=O)Nc3cc(F)cc(Cl)c3)CC2)C1)OC1CCCC1 [Example 57] | – | 709
O=C(CN1CC2(CCC(C(=O)Nc3cc(F)cc(Cl)c3)CC2)C1)NC1(C(F)(F)F)CC1 [Example 58] | – | 59.7
CC1(NC(=O)CN2CC3(CCC(C(=O)Nc4cc(F)cc(Cl)c4)CC3)C2)CC1 [Example 59] | – | 146
